Laboratory results from patent publication US20050019426A1, “Use of an aqueous or hydroalcoholic extract from bauhinia for the preparation of a composition” (priority 2003, published 2005).
“And” between values parts separate entries of the source, which are not always exact repeats. Equal values may be shown once.

Test system: non-enzymatic incorporation of glucose into proteins (glycation) in human dermal fibroblasts (NDHF Pool PF2)
Assay: Non-enzymatic incorporation of glucose into proteins (glycation) in fibroblasts (Example 5)
Format: cell-based
Conditions: 1 mg/ml, 15 days
Method: Material: • human dermal fibroblasts (NDHF Pool PF2) • culture medium: DMEM, 2 mM glutamine, 50 Ul/ml of penicillin, 50 μg/ml of streptomycin, 10% foetal calf serum (Life Technologies) • dry extract of Bauhinia forficata according to Example 4 (aqueous extraction), dissolved in sterile PBS • final concentrations tested: 0.3 mg/ml, 0.1 mg/ml, 0.03 mg/ml • reference: aminoguanidine 1 mg/ml
Human dermal fibroblasts are cultivated to confluence in cell culture medium (see above) in 25 cm^2 plates at 37° C. and 5% CO2. Collagen synthesis is stimulated by cultivation of the cells in the presence of vitamin C (final concentration: 20 μg/ml) for 96 hours. The cells are washed with PBS and lysed by serial freezing/thawing. The cells are treated with aqueous extract of Bauhinia forficata or aminoguanidine (and control: PBS) and labelled with 20 μCi/ml D-[5-^3H]-glucose (19 Ci/mmol), 703 Gbq/mmol) in the presence of 0.1 mg/ml of glucose. The treatment and labelling are carried out without interruption for 15 days at 37° C. and 5% CO2. At the end of the incubation, proteins of the extracellular matrix (principally collagen) are extracted by buffer (TRIS 50 mM, 4M guanidine, 5 mM EDTA, pH 8.0, 30 min). The total protein is precipitated by 20% (v/v) trichloroacetic acid, 0.66 mg/ml of albumin. The precipitates are recovered by filtration from a Skatron collector and washed copiously, firstly in 3% trichloroacetic acid, then with 70% ethanol. The glucose covalently bonded to the fibres of the extracellular matrix is finally measured by scintillation.

## N=C(N)NN [Aminoguanidine, aminoguanidine]
  reduction of glucose incorporation: 85%
n=3
  Mean cpm: 3701 cpm
Single replicates
  cpm (glucose incorporated into proteins): 2859 cpm and 3434 cpm and 4809 cpm
Homo sapiens, Fibroblast, 360 h, read-out: % of control (glucose incorporation)
  activity at 1000 µg/mL: 15%
